Test results: the NIST ThermoML archive (doi:10.1021/je0601208)
± gives the expanded uncertainty stated by the source.

Experiments:
[1] = xn = mol fraction of the nth substance listed
[2] = refractive index (Na D-line) (dimensionless); xn = mol fraction of the nth substance listed; conditions: 100.5 kPa, Liquid, Standard Abbe refractometry

CCCC(=O)OCCC(C)C [3-methylbutyl butanoate] + CCO
Conditions	refractive index, 288.15 K	refractive index, 298.15 K	refractive index, 308.15 K	refractive index, 318.15 K	surface tension liquid-gas, 288.15 K [mN/m]	surface tension liquid-gas, 298.15 K [mN/m]	surface tension liquid-gas, 308.15 K [mN/m]	surface tension liquid-gas, 318.15 K [mN/m]
[1], x1 = 0.05	–	–	–	–	23.3 ± 0.6	22.6 ± 0.6	21.8 ± 0.6	20.9 ± 0.6
[1], x1 = 0.1	–	–	–	–	23.6 ± 0.6	22.8 ± 0.6	22 ± 0.6	21.1 ± 0.6
[1], x1 = 0.15	–	–	–	–	23.8 ± 0.6	23 ± 0.6	22.2 ± 0.6	21.3 ± 0.6
[1], x1 = 0.2	–	–	–	–	24 ± 0.6	23.1 ± 0.6	22.4 ± 0.6	21.5 ± 0.6
[1], x1 = 0.25	–	–	–	–	24.1 ± 0.6	23.3 ± 0.6	22.5 ± 0.6	21.6 ± 0.6
[1], x1 = 0.3	–	–	–	–	24.3 ± 0.6	23.4 ± 0.6	22.6 ± 0.6	21.7 ± 0.6
[1], x1 = 0.35	–	–	–	–	24.4 ± 0.6	23.5 ± 0.6	22.7 ± 0.6	21.8 ± 0.6
[1], x1 = 0.4	–	–	–	–	24.5 ± 0.6	23.6 ± 0.6	22.8 ± 0.6	21.9 ± 0.6
[1], x1 = 0.45	–	–	–	–	24.6 ± 0.6	23.7 ± 0.6	22.9 ± 0.6	22 ± 0.6
[1], x1 = 0.5	–	–	–	–	24.7 ± 0.6	23.8 ± 0.6	23 ± 0.6	22.1 ± 0.6
[1], x1 = 0.55	–	–	–	–	24.8 ± 0.6	23.9 ± 0.6	23.1 ± 0.6	22.2 ± 0.6
[1], x1 = 0.6	–	–	–	–	24.9 ± 0.6	23.9 ± 0.6	23.2 ± 0.6	22.3 ± 0.6
[1], x1 = 0.65	–	–	–	–	25 ± 0.6	24 ± 0.6	23.3 ± 0.6	22.4 ± 0.6
[1], x1 = 0.7	–	–	–	–	25.1 ± 0.6	24.1 ± 0.6	23.4 ± 0.6	22.5 ± 0.6
[1], x1 = 0.75	–	–	–	–	25.2 ± 0.6	24.2 ± 0.6	23.5 ± 0.6	22.6 ± 0.6
[1], x1 = 0.8	–	–	–	–	25.3 ± 0.6	24.3 ± 0.6	23.6 ± 0.6	22.7 ± 0.6
[1], x1 = 0.85	–	–	–	–	25.4 ± 0.6	24.4 ± 0.6	23.7 ± 0.6	22.8 ± 0.6
[1], x1 = 0.9	–	–	–	–	25.5 ± 0.6	24.5 ± 0.6	23.8 ± 0.6	22.9 ± 0.6
[1], x1 = 0.95	–	–	–	–	25.6 ± 0.6	24.6 ± 0.6	23.9 ± 0.6	23 ± 0.6
[1], x1 = 1	–	–	–	–	25.7 ± 0.6	24.7 ± 0.6	24 ± 0.6	23.1 ± 0.6
[2], x1 = 0.05	1.3703 ± 0.00031	1.36624 ± 0.00031	1.36195 ± 0.00031	1.3578 ± 0.00031	–	–	–	–
[2], x1 = 0.1	1.37602 ± 0.00031	1.37182 ± 0.00031	1.36747 ± 0.00031	1.36327 ± 0.00032	–	–	–	–
[2], x1 = 0.15	1.3808 ± 0.00031	1.37656 ± 0.00032	1.37218 ± 0.00032	1.36792 ± 0.00032	–	–	–	–
[2], x1 = 0.2	1.38488 ± 0.00032	1.38059 ± 0.00032	1.3762 ± 0.00032	1.3719 ± 0.00032	–	–	–	–
[2], x1 = 0.25	1.38839 ± 0.00032	1.38406 ± 0.00032	1.37967 ± 0.00032	1.37533 ± 0.00032	–	–	–	–
[2], x1 = 0.3	1.39145 ± 0.00032	1.38709 ± 0.00032	1.38268 ± 0.00032	1.37832 ± 0.00032	–	–	–	–
[2], x1 = 0.35	1.39415 ± 0.00032	1.38977 ± 0.00032	1.38535 ± 0.00032	1.38096 ± 0.00032	–	–	–	–
[2], x1 = 0.4	1.39656 ± 0.00032	1.39216 ± 0.00032	1.38773 ± 0.00032	1.38332 ± 0.00032	–	–	–	–
[2], x1 = 0.45	1.39871 ± 0.00032	1.39431 ± 0.00032	1.38987 ± 0.00032	1.38544 ± 0.00032	–	–	–	–
[2], x1 = 0.5	1.40065 ± 0.00032	1.39624 ± 0.00032	1.3918 ± 0.00032	1.38736 ± 0.00032	–	–	–	–
[2], x1 = 0.55	1.4024 ± 0.00032	1.39798 ± 0.00032	1.39354 ± 0.00032	1.3891 ± 0.00032	–	–	–	–
[2], x1 = 0.6	1.40399 ± 0.00032	1.39956 ± 0.00032	1.39513 ± 0.00032	1.39067 ± 0.00032	–	–	–	–
[2], x1 = 0.65	1.40543 ± 0.00032	1.401 ± 0.00032	1.39656 ± 0.00032	1.3921 ± 0.00032	–	–	–	–
[2], x1 = 0.7	1.40673 ± 0.00033	1.4023 ± 0.00033	1.39786 ± 0.00033	1.3934 ± 0.00033	–	–	–	–
[2], x1 = 0.75	1.40793 ± 0.00033	1.40349 ± 0.00033	1.39905 ± 0.00033	1.39459 ± 0.00033	–	–	–	–
[2], x1 = 0.8	1.40902 ± 0.00033	1.40458 ± 0.00033	1.40015 ± 0.00033	1.39569 ± 0.00033	–	–	–	–
[2], x1 = 0.85	1.41003 ± 0.00033	1.40559 ± 0.00033	1.40116 ± 0.00033	1.3967 ± 0.00033	–	–	–	–
[2], x1 = 0.9	1.41096 ± 0.00033	1.40652 ± 0.00033	1.4021 ± 0.00033	1.39763 ± 0.00033	–	–	–	–
[2], x1 = 0.95	1.41181 ± 0.00033	1.40737 ± 0.00033	1.40296 ± 0.00033	1.39849 ± 0.00033	–	–	–	–
[2], x1 = 1	1.41259 ± 0.00034	1.40815 ± 0.00034	1.40374 ± 0.00034	1.39927 ± 0.00034	–	–	–	–
